# Experimental data published in PubChem BioAssay AID330 (DTP/NCI, 2004).
# “And” between values parts separate entries of the source, which are not always exact repeats. Identical values can stand only once. Toxic doses and inconclusive results are not listed.
# Test system: P388 leukemia ip, CD2F1 mice, survival T/C
# Experiment: NCI In Vivo Anticancer Drug Screen. Data for tumor model P388 Leukemia (intraperitoneal) in CD2F1 (CDF1) mice
# Conditions: endpoint: median survival time, higher = longer survival
# How it was run: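 Mice carrying the transplanted tumor received test compound or vehicle. Survival was recorded in each group, and the value is the treated-group measurement divided by that of the vehicle-treated control group.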
# [1] = dose: 50.0 mg/kg/injection, schedule: Q01DX005 (ip), vehicle: Klucel (hydroxypropylcellulose) (HPC)
# [2] = dose: 100.0 mg/kg/injection, schedule: Q01DX005 (ip), vehicle: Klucel (hydroxypropylcellulose) (HPC)
# [3] = dose: 200.0 mg/kg/injection, schedule: Q01DX005 (ip), vehicle: Klucel (hydroxypropylcellulose) (HPC)
# [4] = dose: 50.0 mg/kg/injection, schedule: Q01DX009 (ip), vehicle: saline with Tween-80
# [5] = dose: 100.0 mg/kg/injection, schedule: Q01DX009 (ip), vehicle: saline with Tween-80
# [6] = dose: 60.0 mg/kg/injection, schedule: Q01DX005 (ip), vehicle: Klucel (hydroxypropylcellulose) (HPC)
# [7] = dose: 120.0 mg/kg/injection, schedule: Q01DX005 (ip), vehicle: Klucel (hydroxypropylcellulose) (HPC)
# [8] = dose: 12.5 mg/kg/injection, schedule: Q01DX009 (ip), vehicle: saline
# [9] = dose: 25.0 mg/kg/injection, schedule: Q01DX009 (ip), vehicle: saline
# [10] = dose: 50.0 mg/kg/injection, schedule: Q01DX009 (ip), vehicle: saline
# [11] = dose: 60.0 mg/kg/injection, schedule: Q01DX005 (ip), vehicle: saline with Tween-80
# [12] = dose: 120.0 mg/kg/injection, schedule: Q01DX005 (ip), vehicle: saline with Tween-80
# [13] = dose: 240.0 mg/kg/injection, schedule: Q01DX005 (ip), vehicle: saline with Tween-80
compound,measurement,setting,value
C=C(C)[C@@]12OC3(/C=C/C=C/CCCCC)O[C@@H]1[C@@H]1[C@@H]4O[C@]4(CO)[C@@H](O)[C@]4(O)C(=O)C(C)=C[C@H]4[C@@]1(O3)[C@H](C)[C@H]2OC(=O)c1ccccc1,T/C,"dose: 0.1 mg/kg/injection, schedule: Q01DX009 (ip), vehicle: saline + alcohol",120 % of control
same,T/C,"dose: 1.6 mg/kg/injection, schedule: Q01DX009 (ip), vehicle: saline + alcohol",155 % of control
same,T/C,"dose: 0.8 micrograms/kg/injection, schedule: Q01DX009 (ip), vehicle: saline + alcohol",101 % of control
same,T/C,"dose: 1.6 micrograms/kg/injection, schedule: Q01DX009 (ip), vehicle: saline + alcohol",101 % of control
same,T/C,"dose: 2.3 micrograms/kg/injection, schedule: Q01DX009 (ip), vehicle: saline + alcohol",97 % of control
same,T/C,"dose: 3.1 micrograms/kg/injection, schedule: Q01DX009 (ip), vehicle: saline + alcohol",119 % of control
same,T/C,"dose: 4.7 micrograms/kg/injection, schedule: Q01DX009 (ip), vehicle: saline + alcohol",100 % of control
same,T/C,"dose: 9.4 micrograms/kg/injection, schedule: Q01DX009 (ip), vehicle: saline + alcohol",97 % of control
same,T/C,"dose: 18.8 micrograms/kg/injection, schedule: Q01DX009 (ip), vehicle: saline + alcohol",95 % of control
same,T/C,"dose: 37.5 micrograms/kg/injection, schedule: Q01DX009 (ip), vehicle: saline + alcohol",100 % of control
same,T/C,"dose: 75.0 micrograms/kg/injection, schedule: Q01DX009 (ip), vehicle: saline + alcohol",119 % of control
same,T/C,"dose: 150.0 micrograms/kg/injection, schedule: Q01DX009 (ip), vehicle: saline + alcohol",114 % of control
CC(C)C(=O)CC(c1ccccc1)P(=O)(c1ccccc1)c1ccccc1 (stereo unspecified),T/C,[1],102 % of control
same,T/C,[2],103 % of control
same,T/C,[3],103 % of control
C=C(C)C(C(=O)OCC)C(=O)OCC,T/C,[4],101 % of control
same,T/C,[5],107 % of control
same,T/C,"dose: 200.0 mg/kg/injection, schedule: Q01DX009 (ip), vehicle: saline with Tween-80",110 % of control
C1=C(OC(=Nc2ccccc2)N2CCOCC2)N=C(OC(=Nc2ccccc2)N2CCOCC2)/C1=C1\C=C(OC(=Nc2ccccc2)N2CCOCC2)N=C1OC(=Nc1ccccc1)N1CCOCC1,T/C,"dose: 100.0 mg/kg/injection, schedule: Q01DX001 (ip), vehicle: Klucel (hydroxypropylcellulose) (HPC)",104 % of control
same,T/C,"dose: 200.0 mg/kg/injection, schedule: Q01DX001 (ip), vehicle: Klucel (hydroxypropylcellulose) (HPC)",107 % of control
same,T/C,"dose: 400.0 mg/kg/injection, schedule: Q01DX001 (ip), vehicle: Klucel (hydroxypropylcellulose) (HPC)",106 % of control
COc1ccc(C2C(C#N)=C(c3ccccc3)OC(OC)(OC)C2(OC)OC)cc1 (stereo unspecified),T/C,[6],102 % of control
same,T/C,[7],102 % of control
same,T/C,"dose: 240.0 mg/kg/injection, schedule: Q01DX005 (ip), vehicle: Klucel (hydroxypropylcellulose) (HPC)",99 % of control
Cc1cccc(Cl)c1NC(=O)C(C)N1CCCC1 (stereo unspecified),T/C,[8],100 % of control
same,T/C,[9],90 % of control
same,T/C,[10],109 % of control
CC(=O)N[C@H]1CCC2[C@@H]3CCC4=CC(=O)NCC[C@]4(C)C3CC[C@@]21C (stereo partly specified),T/C,[11],95 % of control
same,T/C,[12],92 % of control
same,T/C,[13],94 % of control
S=C([S][Sn]([c]1ccccc1)([c]1ccccc1)[c]1ccccc1)N1CCOCC1,T/C,"dose: 1.56 mg/kg/injection, schedule: Q01DX009 (ip), vehicle: saline with Tween-80",100 % of control
same,T/C,"dose: 3.13 mg/kg/injection, schedule: Q01DX009 (ip), vehicle: saline with Tween-80",100 % of control and 103 % of control and 109 % of control
same,T/C,"dose: 6.25 mg/kg/injection, schedule: Q01DX009 (ip), vehicle: saline with Tween-80",107 % of control and 108 % of control
same,T/C,"dose: 12.5 mg/kg/injection, schedule: Q01DX009 (ip), vehicle: saline with Tween-80",105 % of control
O=C(O)c1ccc2c(c1)S(=O)(=O)NC2=O,T/C,[11],95 % of control
same,T/C,[12],99 % of control
same,T/C,[13],101 % of control
Cn1c(=O)oc2cc(C(=O)CN3CCN(c4cccc(C(F)(F)F)c4)CC3)ccc21,T/C,[6],92 % of control
same,T/C,[7],93 % of control
CC[CH2][Sn](=[O])[c]1ccccc1,T/C,[8],99 % of control
same,T/C,[9],105 % of control
same,T/C,[10],98 % of control and 123 % of control
same,T/C,"dose: 200.0 mg/kg/injection, schedule: Q01DX009 (ip), vehicle: saline",96 % of control
COC(=O)[C@@H]1c2cc3c(c(O)c2[C@@H](OC2OC(C)C(OC)C(C)(OC)C2OC)C[C@]1(C)O)C(=O)c1c(O)cc2c(c1C3=O)O[C@H]1O[C@]2(C)[C@H](O)[C@@H](N(C)C)[C@@H]1O (stereo partly specified),T/C,"dose: 0.12 mg/kg/injection, schedule: Q01DX009 (ip), vehicle: saline",120 % of control
same,T/C,"dose: 0.25 mg/kg/injection, schedule: Q01DX009 (ip), vehicle: other",122 % of control
same,T/C,"dose: 0.25 mg/kg/injection, schedule: Q01DX010 (ip), vehicle: saline",110 % of control
same,T/C,"dose: 0.25 mg/kg/injection, schedule: Q04DX003 (ip), vehicle: other",116 % of control
same,T/C,"dose: 0.25 mg/kg/injection, schedule: Q04DX003 (ip), vehicle: saline",117 % of control
same,T/C,"dose: 0.43 mg/kg/injection, schedule: Q04DX003 (ip), vehicle: water",112 % of control
same,T/C,"dose: 0.5 mg/kg/injection, schedule: Q01DX009 (ip), vehicle: other",118 % of control
same,T/C,"dose: 0.5 mg/kg/injection, schedule: Q01DX010 (ip), vehicle: saline",105 % of control
same,T/C,"dose: 0.5 mg/kg/injection, schedule: Q04DX003 (ip), vehicle: other",109 % of control
same,T/C,"dose: 0.52 mg/kg/injection, schedule: Q04DX003 (ip), vehicle: clinical formulation",119 % of control
same,T/C,"dose: 0.72 mg/kg/injection, schedule: Q04DX003 (ip), vehicle: water",115 % of control
same,T/C,"dose: 0.86 mg/kg/injection, schedule: Q04DX003 (ip), vehicle: clinical formulation",121 % of control
same,T/C,"dose: 1.0 mg/kg/injection, schedule: Q01DX009 (ip), vehicle: other",91 % of control
same,T/C,"dose: 1.0 mg/kg/injection, schedule: Q01DX009 (ip), vehicle: saline + alcohol",86 % of control
same,T/C,"dose: 1.0 mg/kg/injection, schedule: Q01DX009 (ip), vehicle: saline",150 % of control
same,T/C,"dose: 1.0 mg/kg/injection, schedule: Q01DX010 (ip), vehicle: saline",100 % of control
same,T/C,"dose: 1.44 mg/kg/injection, schedule: Q04DX003 (ip), vehicle: clinical formulation",114 % of control
same,T/C,"dose: 2.4 mg/kg/injection, schedule: Q04DX003 (ip), vehicle: clinical formulation",107 % of control
same,T/C,"dose: 3.33 mg/kg/injection, schedule: Q04DX003 (ip), vehicle: water",120 % of control
same,T/C,"dose: 125.0 micrograms/kg/injection, schedule: Q01DX009 (ip), vehicle: other",111 % of control
same,T/C,"dose: 375.0 micrograms/kg/injection, schedule: Q04DX003 (ip), vehicle: saline",121 % of control
same,T/C,"dose: 500.0 micrograms/kg/injection, schedule: Q04DX003 (ip), vehicle: saline",118 % of control
same,T/C,"dose: 1000.0 micrograms/kg/injection, schedule: Q01DX009 (ip), vehicle: saline",114 % of control
same,T/C,"dose: 1500.0 micrograms/kg/injection, schedule: Q01DX009 (ip), vehicle: saline",92 % of control
same,T/C,"dose: 3000.0 micrograms/kg/injection, schedule: Q04DX003 (ip), vehicle: saline",91 % of control
CCN(CC)Cc1c(C)[nH]c2ccc(NC(C)=O)cc2c1=O,T/C,[4],116 % of control
same,T/C,[5],114 % of control
C=C(C)c1c2ccccc2cc2cccc(Sc3ccc(C(C)(C)C)cc3)c12,T/C,"dose: 100.0 mg/kg/injection, schedule: Q04DX002 (ip), vehicle: saline with Tween-80",101 % of control
same,T/C,"dose: 200.0 mg/kg/injection, schedule: Q04DX002 (ip), vehicle: saline with Tween-80",96 % of control
same,T/C,"dose: 400.0 mg/kg/injection, schedule: Q04DX002 (ip), vehicle: saline with Tween-80",92 % of control
CCCCCCC1([N+](=O)[O-])CN(C)CC2CCCCN2C1 (stereo unspecified),T/C,"dose: 100.0 mg/kg/injection, schedule: Q04DX002 (ip), vehicle: saline",109 % of control
same,T/C,"dose: 200.0 mg/kg/injection, schedule: Q04DX002 (ip), vehicle: saline",97 % of control
O=C1OC(=O)C2CCCC1C2,T/C,"dose: 50.0 mg/kg/injection, schedule: Q01DX009 (ip), vehicle: Klucel (hydroxypropylcellulose) (HPC)",108 % of control
same,T/C,"dose: 100.0 mg/kg/injection, schedule: Q01DX009 (ip), vehicle: Klucel (hydroxypropylcellulose) (HPC)",102 % of control
same,T/C,"dose: 200.0 mg/kg/injection, schedule: Q01DX009 (ip), vehicle: Klucel (hydroxypropylcellulose) (HPC)",102 % of control
S=C(Nc1ccccc1)P(c1ccccc1)c1ccccc1.[Ir],T/C,[1],90 % of control
same,T/C,[2],99 % of control
same,T/C,[3],97 % of control
